The text below walks through data of PubChem BioAssay (NCI).

The structures appear in SMILES notation.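 Briefly, cells in 96-well plates were exposed to five compound concentrations for 48 h, and endpoints were estimated by linear interpolation. Here, GI50 denotes the concentration required for 50% inhibition of growth. TGI denotes the concentration required for complete inhibition of growth.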

Test systems include DLD-1 colon; DMS 114 small cell lung; DMS 273 small cell lung; HS 578T breast; LXFL 529 NSCLC; MDA-N; SNB-78 CNS; RXF-631 renal; HOP-18 NSCLC.
What all share (assay): NCI anticancer screen, dose series, 48 h

Regarding `CCN(CC)CCNc1ccc2nc(C)n3c4ccc(OC)cc4c(=O)c1c23`, the TGI in the test on DLD-1 colon stood at 10.9 µM; in the test on DMS 114 small cell lung, 14.6 µM; with DMS 273 small cell lung, 11.5 µM; with HS 578T breast it was 6.68 µM; with LXFL 529 NSCLC, 17.5 µM; in the test on MDA-N, 17.2 µM.

Regarding `COc1cccc2c1C(=O)c1c(O)c3c(c(O)c1C2=O)C[C@@](O)(C(=O)CO)C[C@@H]3OC1CC2C(OCN2CN2COC3C(C)OC(O[C@H]4C[C@](O)(C(=O)CO)Cc5c(O)c6c(c(O)c54)C(=O)c4c(OC)cccc4C6=O)CC32)C(C)O1` (stereo partly specified), in the test on HS 578T breast, the GI50 is 0.0394 µM and the TGI was above 1 µM.

With `O=[N+]([O-])C(=C1c2ccccc2-c2ccccc21)[N+](=O)[O-]`, the TGI was above 10 µM in the test with DMS 273 small cell lung, above 100 µM with LXFL 529 NSCLC and above 100 µM in the test on SNB-78 CNS.

Take `O=C1CC[C@@H]2[C@H]3CCC(=O)c4c3c(c3cccc(O)c3c4O)O[C@@]23C(=O)c2cccc(O)c2C(O)=C13`: in the test with HS 578T breast, the GI50 is above 100 µM and the TGI is above 100 µM.

Turning to `O=C(Nc1cccc2[nH]c(C(F)(F)F)nc12)c1ccc(Br)cc1F`, in the test with HS 578T breast, the GI50 was 3.54 µM and the TGI was 22.8 µM.

With `CN(C)Cc1c[nH]c2nc[nH]c(=O)c12`, the TGI in the test on HS 578T breast is above 100 µM; with MDA-N it was 67.7 µM.

Consider `Cc1ccc(C)c(NC(=O)C(=O)C(C2C(C)CC(=O)C2CC(=O)O)[N+](=O)[O-])c1` (stereo unspecified), for which the TGI in the test on DLD-1 colon, with DMS 114 small cell lung, in the test with LXFL 529 NSCLC, in the test on RXF-631 renal and in the test with SNB-78 CNS was above 100 µM throughout.

`CCCCCCCCCCCCNCCCc1ccccc1`: in the test with HS 578T breast, the GI50 is 1.66 µM and the TGI was 3.72 µM.

For the molecule `O=C(NCCc1nccs1)c1cnc2c(S)cccc2c1`, in the test on HS 578T breast, the GI50 is 6.28 µM and the TGI worked out at 80.5 µM.

In the case of `COc1cc(/C=C2\CC3C4CC=C5C[C@@H](N6CCCC6)CC[C@]5(C)C4CC[C@]3(C)[C@H]2OC(C)=O)ccc1OCCCn1ccnc1` (stereo partly specified), in the test on HS 578T breast, the GI50 is 5.76 µM and the TGI came to 16.4 µM.

As for `O=S(=O)([O-])c1ccc(C=Nc2ccccc2)c([O-])c1.O=S(=O)([O-])c1ccc(C=Nc2ccccc2)c([O-])c1.[Co+2]`, the GI50 in the test with DLD-1 colon was 5.18 µM; in the test with DMS 114 small cell lung, above 100 µM; in the test with HOP-18 NSCLC, 43.1 µM; in the test with SNB-78 CNS, 51.7 µM. Besides, the TGI in the test with DLD-1 colon, in the test with DMS 114 small cell lung, with HOP-18 NSCLC and in the test with SNB-78 CNS was above 100 µM each time.

For `O=C1c2ccccc2C(=O)N1CCN(CCN1C(=O)c2ccccc2C1=O)Cc1ccccc1`, the TGI in the test on DLD-1 colon, in the test with DMS 114 small cell lung, in the test with DMS 273 small cell lung, in the test with LXFL 529 NSCLC and in the test on SNB-78 CNS was above 100 µM each time.

In the case of `CC(C)(C)c1ccc(OCCCCCCCN2CCNCC2)cc1`, in the test with HS 578T breast, the GI50 is 1.92 µM and the TGI is 4.77 µM.

Turning to `O=C1c2ccccc2-n2c1nc1ccc([N+](=O)[O-])cc1c2=O`, in the test with HS 578T breast, the TGI is above 100 µM.

Consider `CCOC(=O)C(c1ccsc1)P(=O)(OCC)OCC` (stereo unspecified), for which the TGI with DLD-1 colon was found to be 44.9 µM; in the test with DMS 114 small cell lung, 29 µM; with DMS 273 small cell lung, 26.8 µM; in the test on HOP-18 NSCLC it was 43.8 µM; in the test with LXFL 529 NSCLC, 26.7 µM; with SNB-78 CNS, 76.9 µM.

On to `Cc1ccc(S(=O)(=O)NC(=O)Nc2ncn[nH]2)cc1`, for which the TGI with HS 578T breast and in the test with MDA-N was above 100 µM in each case.

As to `O=C1/C(=C/c2ccc([N+](=O)[O-])s2)Oc2ccc(Br)cc21`, in the test on HS 578T breast, the GI50 was 0.448 µM and the TGI is above 100 µM.

In the case of `C=CC(=O)N1CCN(c2nc(OC[C@@H]3CCCN3C)nc3c(F)c(-c4nc(N)cc(C)c4C(F)(F)F)c(Cl)cc23)[C@@H](C)C1`, in the test with HS 578T breast, the GI50 is 1.83 µM and the TGI turned out to be 4.53 µM.

As to `Cc1nc2sc(C(=O)Nc3cccc4c3OCCO4)c(N)c2cc1C(C)O` (stereo unspecified), in the test on HS 578T breast, the GI50 is 3.07 µM and the TGI is above 100 µM.

`CC(C)C[C@H](NC(=O)[C@@H](N)Cc1cccc2ccccc12)B(O)O`: in the test on MDA-N, the GI50 was below 0.01 µM.

Turning to `COC(=O)N1C=CC2=C(C)C3Nc4ccccc4C3C(C)=C2C1` (stereo unspecified), the TGI with DLD-1 colon is 19.8 µM; in the test with DMS 114 small cell lung it was above 100 µM; in the test with DMS 273 small cell lung it was 11.7 µM; in the test with LXFL 529 NSCLC it was 9.94 µM; with SNB-78 CNS, 3.66 µM.

`C[C@H]1CCC/C=C/[C@@H]2C[C@H](O)C[C@H]2[C@H](O)C(O)C(O)C(=O)O1` (stereo partly specified): the GI50 was 0.702 µM in the test on HS 578T breast and 4.53 µM with MDA-N. Also, the TGI with HS 578T breast and with MDA-N was above 100 µM throughout.

Regarding `CCOC(=O)c1c(C)n(Cc2ccc(Cl)cc2Cl)c2c1cc(O)c1[nH]c(Cc3ccccc3)nc12`, in the test on HS 578T breast, the GI50 is 1.53 µM and the TGI worked out at 3.8 µM.

On to `CC(=O)OC1C(C)OC(Oc2c(-c3ccc(O)cc3)oc3cc(O)cc(O)c3c2=O)C(O)C1OC(C)=O` (stereo unspecified), for which, in the test with HS 578T breast, the GI50 is 24.9 µM and the TGI worked out at 82.4 µM.

Regarding `NC(=O)c1c(NC(=O)c2ccc(C(F)(F)F)cc2Cl)sc2c1CCC(=O)C2`, in the test with HS 578T breast, the GI50 was 0.368 µM and the TGI turned out to be 5.94 µM.

For `O=C(N/N=C/c1coc2ccc(Cl)cc2c1=O)c1cc(O)c(O)c(O)c1`, in the test with HS 578T breast, the GI50 is 18.3 µM and the TGI stood at 73.3 µM.

With `COc1cccc(/C=C2\COc3ccc(O)c(O)c3C2=O)c1OC`, in the test with HS 578T breast, the GI50 was 3.99 µM and the TGI was 31.5 µM.

For the molecule `CC1(C)CCOC(Sc2ccccc2)C1` (stereo unspecified), the TGI with DLD-1 colon, in the test with DMS 114 small cell lung, in the test on DMS 273 small cell lung, in the test with LXFL 529 NSCLC and in the test with SNB-78 CNS was above 100 µM each time.

In the case of `CN1C=C(C(N)=O)Cc2ccsc21`, the TGI with DLD-1 colon, in the test on DMS 114 small cell lung, in the test on DMS 273 small cell lung, in the test with HOP-18 NSCLC, with LXFL 529 NSCLC and in the test on SNB-78 CNS was above 100 µM in each case.

For `Nc1ncnc2occ(-c3ccc(NC(=O)Nc4cccc(C(F)(F)F)c4)cc3)c12`, in the test on HS 578T breast, the GI50 was 0.973 µM and the TGI turned out to be 6.74 µM.
